What was measured:
KLE = assay: IC50 in endometrial cancer cell lines (untitled table); format: cell-based; settings: Homo sapiens, FBXW7^mut, Type II
RUCA = assay: as above; format: cell-based; settings: PTEN^del, ER+, Type I
AN3CA = assay: as above; format: cell-based; settings: Homo sapiens, AN3-CA, PTEN^del, FBXW7, FGFR2^N549K, K310R, Type II
MFE-280 cells = assay: 48-hour caspase 3/7 activation assay (apoptosis induction); format: cell-based; settings: single agent
Experimental: (§1) In vitro combination assessment: The effects of combinations of the present invention were evaluated using combination index isobologram analysis for in vitro assessment. The efficacy parameters were the effects in a 48-hour caspase 3/7 activation assay. Briefly, cells were plated in 384-well plate with 25 μL medium. After 24 hours, 5 μL of experimental media containing: • either A alone, or • B alone, or • the combination of A (as component A) plus either B, (as component B), at different ratios (***) were used to make serial 3-fold dilutions to generate response curves with 7 concentrations. Experiments were conducted in triplicates. Caspase 3/7 assay was conducted at 48 hours after compound exposure.
FIG. 1: Synergistic combination of PI3K inhibitor compound A (Copanlisib) with FGFR inhibitor compound B in MFE-280 cells (PIK3CA^G1047Y, FGFR2^S252W). The combination of PI3K inhibitor compound A (copanlisib) and FGFR inhibitor compound B was tested and compared to the single agent activity in MFE 280 to address the activity in apoptosis induction using a cleaved caspase 3/7 assay. MFE 280 cells are bearing both activating PIK3CA and FGFR2 mutations.

HEC-1B = assay: IC50 in endometrial cancer cell lines (untitled table); format: cell-based; settings: Homo sapiens, PIK3CA^mut, PIK3R2^mut, PTEN^Loss(protein) and KRAS^mut, Type II
MFE-296 cells = assay: 48-hour caspase 3/7 activation assay (apoptosis induction); format: cell-based; settings: single agent
Experimental: as §1
FIG. 2: Synergistic combination of PI3K inhibitor compound A (Copanlisib) with FGFR inhibitor compound B in MFE-296 cells (PTEN^del, FGFR2^N549K). The combination of PI3K inhibitor compound A (copanlisib) and FGFR inhibitor compound B was tested and compared to the single agent activity in MFE 296 to address the activity in apoptosis induction using a cleaved caspase 3/7 assay. MFE 296 cells are bearing activating FGFR2 mutation and loss-of-PTEN.

[1] = Phase I dose escalation study, maximum tolerated dose; settings: human, in vivo, iv; intravenously over 60 minutes on days 1, 8, 15 of every 28 day cycle
Experimental: (§2) In a phase I dose escalation study, subjects were treated with Compound A (copanlisib) administered intravenously over 60 minutes on days 1, 8, and 15 of every 28 day cycle. Seventeen subjects were treated in 5 dose escalation cohorts (0.1, 0.2, 0.4, 0.8, and 1.2 mg/kg), and the maximum tolerated dose (MTD) was determined to be 0.8 mg/kg. Additional patients were enrolled into the study in 3 expansion cohorts treated at the MTD to assess safety, pharmacokinetics, biomarkers, and clinical benefit in selected patient populations, including solid tumors (n=25), non-Hodgkin lymphoma (NHL; n=9), and diabetic solid tumor patients (n=6; treated at 0.4 mg/kg).

MFE 280 = assay: IC50 in endometrial cancer cell lines (untitled table); format: cell-based; settings: Homo sapiens, PIK3CA^G1047Y, RB^del, FGFR2^5252W, Type II
[2] = tested on: MFE 280 xenograft tumor model; assay: In vivo efficacy in tumor xenograft model; parameters: species or system nude mice; settings: for T/C (tumor area) / T/C (tumor weight): study end
Experimental: (§3) The in vivo efficacy was evaluated in tumor xenograft models in nude mice with established human tumor cell lines at the MTD and sub-MTD dosages. Tumor cells were cultivated according to ATCC protocols in recommended media contained 10% FCS. Cells were harvested for transplantation in a subconfluent (70%) state. The volume of implantation was 100 μl for mice. When the tumors were approximately in size of 25-50 mm^2, the animals were randomized to treatment and control groups and treatment was started. Treatment of each animal was based on individual body weight. The optimal formulation, application route and schedule were used for each compound (see table 2). Oral administration (p.o.) was carried out via a gastric tube. The oral application volumes were 10 ml/kg and the intravenous application volumes were 10 ml/kg. Tumor area (product of the longest diameter and its perpendicular) using a caliper. The animal body weight was monitored as a measure for treatment-related toxicity. Measurement of tumor area and body weight was performed 2-3 times weekly. T/C ratios (Treatment/Control) were calculated with final tumor areas. Treatment responses were evaluated by means of the clinically-used RECIST criteria (complete response, partial response, stable disease and progressive disease) and response rates were calculated accordingly (RR=number of animals with complete and partial response).
FIGS. 3A and 3B: Synergistic combination of PI3K inhibitor compound A (Copanlisib) with FGFR inhibitor compound B in MFE-280 xenograft tumor model. The combination of PI3K inhibitor compound A (copanlisib) and FGFR inhibitor compound B was tested and compared to the single agent activity and the SoC doxorubicin in MFE 280, an endometrial tumor model bearing both activating PIK3CA and FGFR2 mutations. At a tumor size of about 40 mm^2 the subcutaneously growing MFE-280 tumors were treated intravenously with two different doses of compound A (copanlisib), 14 (filled triangles)/10 (open triangles) mg/kg, and 7 mg/kg) and in combination of compound A and compound B. The dosing schedule for compound A is depicted in FIG. 3A with triangles. […] Doxorubicin was applied intravenously 1 time every 14 days as a SoC reference.

Ishikawa = assay: IC50 in endometrial cancer cell lines (untitled table); format: cell-based; settings: Homo sapiens, PTEN^del, PIK3R1^mut, ER+, PR+, Type I
[3] = Body weight as a measure for treatment-related toxicity in MFE-280 xenograft study; settings: mouse, in vivo, 7 mg/kg
Experimental: as §3, with “response). […]” for “response).”

ECC-1 = assay: IC50 in endometrial cancer cell lines (untitled table); format: cell-based; settings: Homo sapiens, PTEN^del, PIK3R1^mut, ER+, PR+, Type I
HEC-1A = assay: as above; format: cell-based; settings: Homo sapiens, PIK3CA^G1049R, PIK3R2^mut, KRAS^mut, Type II
HEC-50 = assay: as above; format: cell-based; settings: Hec50, PIK3R1^mut, KRAS^mut, Type II
RL95-2 = assay: as above; format: cell-based; settings: Homo sapiens, PIK3R1^mut/PTEN^del/NF2/BRCA2, Type II
endometrial cancer = assay: Phase I study, clinical outcomes in endometrial cancer patients; format: in vivo, human
Experimental: as §2
PIK3CA, BRAF, and KRAS mutations were tested using digital PCR on archival tumor samples and cell free DNA isolated from plasma. Next generation sequencing (NGS) of a panel of tumor genes and immunohistochemistry (IHC) for PTEN protein were also performed on archival tumor samples. […] Of the 2 endometrial cancer patients with extended SD lasting more than 8 cycles, PTEN data could only be generated for 1 (patient #2117), and this tumor was also PTEN-negative by IHC (Table 4). The other endometrial cancer patient with extended SD (with 24.3% tumor shrinkage) harbored a KRAS tumor mutation (Table 4). […] Activation of PI3K pathway signaling via a number of mechanisms alone or in combination, such as PTEN loss and/or mutation, PIK3CA mutation, and/or KRAS mutation, may enrich Compound A (copanlisib) activity in this population.

MFE 296 = assay: IC50 in endometrial cancer cell lines (untitled table); format: cell-based; settings: Homo sapiens, PTEN^del, FGFR2^N549K, UTX^del, Type II
[4] = Compound A (14)10 mg/kg i.v. Q2D
[5] = Pt 2004, 0.4 mg/kg (40 mg), stage IV
[6] = Pt 2116, 0.8 mg/kg (59 mg), stage IV
[7] = Pt 2117, 0.8 mg/kg (51 mg), stage IIIC
[8] = Doxorubicin Q14D (SoC reference)

## COc1c(OCCCN2CCOCC2)ccc2c1N=C(NC(=O)c1cnc(N)nc1)N1CCN=C21 [Compound A, 2-amino-N-[7-methoxy-8-(3-morpholin-4-ylpropoxy)-2,3-dihydroimidazo[1,2-c]quinazolin-5-yl]pyrimidine-5-carboxamide]
KLE
  IC50: < 6.86 nM
RUCA
  IC50: 13.7 nM
AN3CA
  IC50: < 6.86 nM
MFE-280 cells
  concentration up to which no apoptosis induction was shown (cleaved caspase 3/7): > 5 µM
HEC-1B
  IC50: < 6.86 nM
MFE-296 cells
  concentration up to which no apoptosis induction was shown (cleaved caspase 3/7): > 5 µM
[1]
  MTD: 0.8 mg/kg
MFE 280
  IC50: < 6.86 nM
[2]; Compound A 7 mg/kg i.v. Q2D
  CR (complete response): 0%
  PD (progressive disease): 25%
  PR (partial response): 25%
  RR (response rate): 25%
  T/C (tumor area): 0.40
  T/C (tumor weight): 0.24
[2]; [4]
  CR (complete response): 0%
  PD (progressive disease): 0%
  PR (partial response): 37.5%
  RR (response rate): 37.5%
  T/C (tumor area): 0.34
  T/C (tumor weight): 0.16
[2]; compound A 7 mg/kg
  reduction of tumor weight: ~76%
[2]; compound A (14)10 mg/kg
  reduction of tumor weight: approximately 84%
Ishikawa
  IC50: 373 nM
[3]
  body weight loss compared to starting body weight: No body weight loss
ECC-1
  IC50: 161 nM
HEC-1A
  IC50: < 6.86 nM
HEC-50
  IC50: 64.6 nM
RL95-2
  IC50: 144 nM
Endometrial cancer; 4 of 5 endometrial cancer patients
  clinical benefit (patients with CR, PR or SD): 80%
Endometrial cancer; [5]
  Best % change in tumor size from screening: −24.3%
  Best response: SD 8 cycles
Endometrial cancer; Pt 2008, 0.8 mg/kg (40 mg), stage IV
  Best % change in tumor size from screening: 2.4%
Endometrial cancer; [6]
  Best % change in tumor size from screening: −8.7%
  Best response: SD 2 cycles
Endometrial cancer; [7]
  Best % change in tumor size from screening: −9.1%
  Best response: SD 8 cycles
Endometrial cancer; Pt 3106, 0.8 mg/kg (46 mg, then 37 mg), stage IV
  Best % change in tumor size from screening: −61.8%
Endometrial cancer; endometrial cancer patient with extended SD and KRAS tumor mutation
  tumor shrinkage: 24.3%
MFE 296
  IC50: < 6.86 nM

## COCc1c(-c2cc3cc(C)cc(OC)c3s2)c2c(N)ncnn2c1CN1CCNC(=O)C1 [Compound B, 4-{[4-Amino-6-(methoxymethyl)-5-(7-methoxy-5-methyl-1-benzothiophen-2-yl)pyrrolo[2,1-f][1,2,4]triazin-7-yl]methyl}piperazin-2-one]
MFE-280 cells
  concentration up to which no apoptosis induction was shown (cleaved caspase 3/7): > 10 µM
MFE-296 cells
  concentration up to which no apoptosis induction was shown (cleaved caspase 3/7): > 10 µM
[2]; Compound B 75 mg/kg p.o. QD
  CR (complete response): 12.5%
  PD (progressive disease): 12.5%
  PR (partial response): 0%
  RR (response rate): 12.5%
  T/C (tumor area): 0.39
  T/C (tumor weight): 0.22
[2]; compound B, at the end of the study
  tumor growth inhibition: 78%

## COc1cccc2c1C(=O)c1c(O)c3c(c(O)c1C2=O)C[C@@](O)(C(=O)CO)C[C@@H]3O[C@H]1C[C@H](N)[C@H](O)[C@H](C)O1 [Doxorubicin, reference compound]
[2]; [8]
  CR (complete response): 0%
  PD (progressive disease): 37.5%
  PR (partial response): 12.5%
  RR (response rate): 12.5%
  T/C (tumor area): 0.51
  T/C (tumor weight): 0.39
[2]; SoC Doxorubicin
  tumor growth inhibition assessed by tumor weight: 61%
